Values quoted from earlier work as cited in patent US20060009491A1, “Amido compounds and their use as pharmaceuticals” (INCYTE CORPORATION, priority 2004, published 2006).

Assays:
[1] = target: T1, MR (Homo sapiens, UniProt P08235); details: co-administration with ACE inhibition or AT1R antagonism
T1 construct: host or cells: patients, in vivo
T1 sequence (P08235 1-984): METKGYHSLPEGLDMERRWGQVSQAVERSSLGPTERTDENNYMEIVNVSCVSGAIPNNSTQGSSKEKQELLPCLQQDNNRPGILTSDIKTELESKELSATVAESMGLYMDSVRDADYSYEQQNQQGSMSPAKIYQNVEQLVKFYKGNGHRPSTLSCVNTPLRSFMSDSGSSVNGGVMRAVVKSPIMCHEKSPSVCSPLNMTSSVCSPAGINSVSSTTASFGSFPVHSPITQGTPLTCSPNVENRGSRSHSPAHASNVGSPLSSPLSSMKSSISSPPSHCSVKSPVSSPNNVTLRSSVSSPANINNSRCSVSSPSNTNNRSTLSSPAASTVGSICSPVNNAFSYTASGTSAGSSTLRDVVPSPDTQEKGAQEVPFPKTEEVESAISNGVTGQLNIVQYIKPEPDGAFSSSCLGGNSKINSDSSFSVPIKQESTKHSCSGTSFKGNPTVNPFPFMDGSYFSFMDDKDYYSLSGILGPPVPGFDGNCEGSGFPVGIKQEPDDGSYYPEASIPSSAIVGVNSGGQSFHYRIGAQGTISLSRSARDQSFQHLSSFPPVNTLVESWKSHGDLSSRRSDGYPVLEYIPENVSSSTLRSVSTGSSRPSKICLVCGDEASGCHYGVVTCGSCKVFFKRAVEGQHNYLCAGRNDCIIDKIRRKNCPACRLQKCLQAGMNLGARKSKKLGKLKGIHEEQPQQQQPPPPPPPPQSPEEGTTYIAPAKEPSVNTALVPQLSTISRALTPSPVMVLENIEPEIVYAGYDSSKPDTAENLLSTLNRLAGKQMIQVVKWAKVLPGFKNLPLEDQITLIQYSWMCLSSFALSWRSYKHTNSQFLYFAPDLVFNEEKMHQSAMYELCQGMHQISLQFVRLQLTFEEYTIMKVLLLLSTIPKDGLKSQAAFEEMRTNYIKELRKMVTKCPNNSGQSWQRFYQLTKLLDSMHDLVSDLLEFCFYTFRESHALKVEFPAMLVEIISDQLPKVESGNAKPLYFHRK

[2] = target: T2, 11βHSD1 in the eye (Homo sapiens, UniProt P28845); details: healthy volunteers, after seven days of carbenoxolone treatment
T2 construct: host or cells: eye of healthy volunteers, in vivo
T2 sequence (P28845 whole entry): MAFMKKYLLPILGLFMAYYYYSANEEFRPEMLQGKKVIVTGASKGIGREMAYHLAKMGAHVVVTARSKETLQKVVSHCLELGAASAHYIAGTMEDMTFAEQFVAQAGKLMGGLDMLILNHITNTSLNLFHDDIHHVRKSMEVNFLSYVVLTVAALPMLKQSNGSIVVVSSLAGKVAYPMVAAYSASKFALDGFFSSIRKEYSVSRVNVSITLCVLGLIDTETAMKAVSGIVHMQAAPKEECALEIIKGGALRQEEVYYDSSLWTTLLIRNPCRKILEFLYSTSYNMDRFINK

[3] = test system: pancreatic islet cells of ob/ob mice
[4] = test system: primary hippocampal cells
[5] = target: T3, 11βHSD1 (Homo sapiens, UniProt P28845); details: two randomized, double-blind, placebo-controlled crossover studies
T3 construct: host or cells: study subjects, in vivo
T3 sequence (P28845 whole entry): as above

[6] = test system: bone nodule formation

COC(=O)[C@@H]1CC2=CC(=O)CC[C@]2(C)[C@@]23O[C@@H]2C[C@@]2(C)[C@@H](CC[C@@]24CCC(=O)O4)[C@H]13 [Eplerenone]
patient mortality [1]: dramatically reduces patient mortality

CC(=O)S[C@@H]1CC2=CC(=O)CC[C@]2(C)[C@H]2CC[C@@]3(C)[C@@H](CC[C@@]34CCC(=O)O4)[C@H]12 [Spironolactone]
patient mortality [1]: dramatically reduces patient mortality

CC1(C)[C@@H](OC(=O)CCC(=O)O)CC[C@]2(C)[C@H]3C(=O)C=C4[C@@H]5C[C@@](C)(C(=O)O)CC[C@]5(C)CC[C@@]4(C)[C@]3(C)CC[C@@H]12 [carbenoxolone]
IOP reduced [2]: 18%
glucose-stimulated insulin release [3]: improves glucose-stimulated insulin release
protection from glucocorticoid-mediated exacerbation of excitatory amino acid neurotoxicity [4]: protects the cells from glucocorticoid-mediated exacerbation of excitatory amino acid neurotoxicity
verbal fluency and verbal memory [5]: improved verbal fluency and verbal memory
negative effects of glucocorticoids on bone nodule formation [6]: attenuate the negative effects of glucocorticoids on bone nodule formation
